Source: ChEMBL document CHEMBL1201862, “PubChem BioAssay data set” (2004)
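96-well plates; 48 h exposure; 5 concentrations. Endpoints by linear interpolation between flanking doses. Not reached: highest tested concentration assigned. GI50 marks 50% less growth.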 The source made the active and inactive calls. No stated cut-off is given here; in the data, active = GI50 up to about 1.1 µM and inactive = higher.

Legend:
Assay in all cases: growth of human tumour cells (NCI), 48 h
HOP-62 = tested on: HOP-62
SF-295 = tested on: SF-295
HCC 2998 = tested on: HCC 2998
CCRF-CEM = tested on: CCRF-CEM
NCI/ADR-RES = tested on: NCI/ADR-RES
CAKI-1 = tested on: CAKI-1
SR = tested on: SR
SNB-19 = tested on: SNB-19
SNB-75 = tested on: SNB-75
IGROV-1 = tested on: IGROV-1
SK-MEL-28 = tested on: SK-MEL-28
U-251 = tested on: U-251
SN12C = tested on: SN12C
HL-60 = tested on: HL-60
K562 = tested on: K562
NCI-H460 = tested on: NCI-H460
UACC-62 = tested on: UACC-62
MCF7 = tested on: MCF7
LOX IMVI = tested on: LOX IMVI
UACC-257 = tested on: UACC-257

Measured: GI50

NCCCn1c(Cl)nc2ccccc21
inactive: HOP-62 > 100 µM | SF-295 > 100 µM | HCC 2998 > 100 µM | CCRF-CEM > 100 µM | NCI/ADR-RES > 100 µM | CAKI-1 > 100 µM | SR > 100 µM | SNB-19 > 100 µM | SNB-75 > 100 µM | IGROV-1 > 100 µM | SK-MEL-28 > 100 µM | U-251 > 100 µM | SN12C > 100 µM | HL-60 > 100 µM | K562 > 100 µM | NCI-H460 > 100 µM | UACC-62 > 100 µM | MCF7 > 100 µM | LOX IMVI > 100 µM

CC(=O)N1C(=O)/C(=C\C(=O)c2ccc(Cl)cc2)c2ccccc21
inactive: HOP-62 20.1 µM | SF-295 21.1 µM | UACC-257 14.9 µM | HCC 2998 15.9 µM | CCRF-CEM 2.61 µM | NCI/ADR-RES 20.6 µM | CAKI-1 13.3 µM | SR 2.48 µM | SNB-19 24.8 µM | SNB-75 17.7 µM | IGROV-1 16.7 µM | SK-MEL-28 14 µM | U-251 15.5 µM | SN12C 15.3 µM | HL-60 2.28 µM | K562 12 µM | NCI-H460 15 µM | UACC-62 13.4 µM | MCF7 21 µM | LOX IMVI 2.3 µM

CCOC(=O)c1csc(NC(=O)C(C)N2CCOCC2)n1 (stereo not drawn)
inactive: HOP-62 > 100 µM | SF-295 > 100 µM | UACC-257 > 100 µM | HCC 2998 > 100 µM | CCRF-CEM > 100 µM | NCI/ADR-RES > 100 µM | CAKI-1 > 100 µM | SR > 100 µM | SNB-19 > 100 µM | SNB-75 > 100 µM | IGROV-1 > 100 µM | SK-MEL-28 > 100 µM | U-251 > 100 µM | HL-60 > 100 µM | K562 > 100 µM | NCI-H460 > 100 µM | UACC-62 > 100 µM | MCF7 > 100 µM | LOX IMVI > 100 µM

CO/N=C1/c2sccc2[C@H](NC(=O)C(Cc2ccccc2)NC(=O)OC(C)(C)C)[C@@H]1O (stereo partly drawn)
inactive: HOP-62 > 100 µM | SF-295 > 100 µM | UACC-257 > 100 µM | HCC 2998 > 100 µM | CCRF-CEM > 100 µM | NCI/ADR-RES > 100 µM | CAKI-1 > 100 µM | SR 49.5 µM | SNB-19 > 100 µM | SNB-75 > 100 µM | IGROV-1 > 100 µM | SK-MEL-28 > 100 µM | U-251 > 100 µM | SN12C > 100 µM | HL-60 85.1 µM | K562 > 100 µM | NCI-H460 > 100 µM | UACC-62 > 100 µM | MCF7 > 100 µM | LOX IMVI > 100 µM
